What was measured:
rats = test: Catalepsy induction in rats (extrapyramidal motor side effects); type: in vivo, rat; settings: doses up to 500 fold higher compared to the doses effective in the animal models
Experimental: (§1) Extrapyramidal motor side effects in e.g. rodents are measured by the ability of a drug to induce catalepsy. Catalepsy is defined as a state where an animal continues to remain in an unnormal (nonphysiological 'uncomfortable') posture for a long time ([…] and S. D. Glick, Neuropharmacology, 1996; 15: 393-394; […] P. Janssen, Life Sci., 1979, […]). For example, if a hindpaw of a rat is placed on an elevated level, e.g. a platform elevated 3 cm above ground level, a normal rat immediately withdraws the hindpaw from the platform to the ground level. A cataleptic rat remains in this unnatural posture even for minutes.

[1] = system: catalepsy induced by conventional antidopaminergic drugs such as haloperidol; test: Catalepsy induced by conventional antidopaminergic drugs such as haloperidol; type: in vivo; settings: same dose-range as effective in the animal models
Experimental: as §1

D2 = D2 (Homo sapiens, UniProt P14416); test: D2 antagonism; settings: under increased doses
Chain of D2 (P14416 whole entry): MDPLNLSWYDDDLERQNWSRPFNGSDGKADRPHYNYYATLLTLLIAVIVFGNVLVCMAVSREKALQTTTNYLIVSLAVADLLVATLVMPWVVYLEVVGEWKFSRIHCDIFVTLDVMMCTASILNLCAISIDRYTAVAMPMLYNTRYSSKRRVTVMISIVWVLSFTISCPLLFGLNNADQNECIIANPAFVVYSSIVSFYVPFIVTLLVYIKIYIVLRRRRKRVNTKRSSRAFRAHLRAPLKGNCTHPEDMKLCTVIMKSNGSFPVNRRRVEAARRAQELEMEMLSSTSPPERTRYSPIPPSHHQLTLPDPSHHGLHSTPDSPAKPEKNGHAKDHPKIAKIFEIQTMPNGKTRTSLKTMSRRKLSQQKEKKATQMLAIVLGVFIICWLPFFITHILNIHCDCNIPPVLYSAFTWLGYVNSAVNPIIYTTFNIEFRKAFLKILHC

[2] = system: Parkinsonian cynomolgus monkey; test: MPTP Parkinsonian cynomolgus monkey chronically treated with I-dopa (adverse effects of anti-Parkinsonian drugs); type: in vivo; settings: MPTP monkeys, long-term I-dopa
Experimental: Treatment of adverse effects of conventional anti-Parkinsonian drugs as defined above are determined in a modification of the animal model of the Parkinsonian cynomolgus monkey according to P. J. Blanchet et al., Exp. Neurology 1998; 153: 214-222. Monkeys render parkinsonian by repeated injections of 1-methyl-4-phenyl-1,2,3,6-tetrahydropyridine (MPTP). The Parkinsonian monkeys are chronically treated with the standard I-dopa therapy according to P. J. Blanchet et al., Mov. Disord., 1998; 13: 798-802. Longterm treatment with I-dopa induces extrapyramidal motor side effects and psychotic states which are both qualitatively and quantitatively, assessed by the Abnormal Involuntary Movement Scale (P. J. Blanchet et al., Mov. Disord. 1998; 13: 798-802) for different body parts (face, neck, trunk, each limb) and by rating for psychotic states by observing the monkey's attention, reactivity and mobility.

[3] = system: Parkinsonian cynomolgus monkey; test: MPTP Parkinsonian cynomolgus monkey, Laval University Disability Scale; type: in vivo; settings: MPTP monkeys
From the text: A typical animal model for idiopathic Parkinson's disease is the Parkinsonian cynomolgus monkey according to P. J. Blanchet et al., Exp. Neurology 1998; 153: 214-222. Monkeys render parkinsonian by repeated injections of 1-methyl-4-phenyl-1,2,3,6-tetrahydropyridine (MPTP). Parkinsonian symptoms are qualitatively assessed by the use of the Laval University Disability Scale (B. Gomez-Mancilla et al., 1993; Mov. Disord. 8: 144-150) measuring the following symptoms: posture, mobility, climbing, gait, holding food, vocalizing, grooming, social interaction.

[4] = system: reserpinized rat or mouse; test: Reserpinized rat or mouse (akinesia); type: in vivo; settings: 24 h after reserpine
Experimental: A typical animal model is the reserpinized rat or mouse (e.g. […]. Neural Transm.-Park. Dis. Dement. Sect., 1994; 7: 133-142; M. Gossel et al., J. Neural Transm.-Park. Dis. Dement. Sect., 1995; 10: 27-39; N. R. Hughes et al., Mov. Disord., 1998; 13: 228-233). Reserpine is a potent depleter of monoamines and produces nearly complete akinesia in both species. Prominent 24 h after application, the distance traveled and the time active is nearly zero as measured in conventional activity meters.

[5] = system: striatonigral degeneration approach in the rat; test: Striatonigral degeneration in the rat (6-hydroxydopamine plus quinolinic acid), turning behavior; type: in vivo; settings: automated recorder
From the text: Another more recent animal model is the striatonigral degeneration approach in the rat according to […] et al., J. Neural Transm. Suppl., 1999; 55: 103-113. Rats receive an unilateral injection of 6-hydroxydopamine into the left medial forebrain bundle followed by an injection of quinolinic acid into the ipsilateral striatum inducing nigrostriatal degeneration. The degeneration results in turning behavior to a challenge with dopaminomimetics such as apomorphine or amphetamine. Turning behavior is measured by an automated recorder.

[6] = system: systemic 3-nitropropionic acid (3-NP) model in rats; test: Systemic 3-nitropropionic acid (3-NP) model in rats, nocturnal activity; type: in vivo, rat
From the text: A typical animal model is the systemic 3-nitropropionic acid (3-NP) model in rats according to C.
After two injections of 3-NP, rats display nocturnal hyperactivity reflecting symptoms of early Huntington's disease, whereas rats treated with four injections of 3-NP display nocturnal akinesia (hypoactivity) reflecting symptoms of late Huntington's disease. Nocturnal activity is automatically measured in conventional activity cages by infrared beams.

mutant dystonic hamster = test: Mutant dystonic hamster; type: in vivo; settings: scoring system
From the text: A typical animal model is the mutant dystonic hamster according to A. Richter and W. Löscher, Prog. Neurobiol. 1998; 54: 633-677. In this genetically dystonic hamsters, dystonic attacks are provoked by taking the animal from the home cage and placing it on a balance. The dystonic syndrome consists of a sequence of abnormal movements, and the severity of the single symptoms is rated by a scoring system.

[7] = system: neuroleptics-induced muscle rigidity in rats; test: Neuroleptics-induced muscle rigidity in rats; type: in vivo, rat; settings: resistance to passive flexion and extension of the hind limb
From the text: A typical animal model is neuroleptics-induced muscle rigidity in rats according to S. Wolfarth et al., Arch. Pharmacol. 1992; 345: 209-212. Rats are challenged with the conventional neuroleptic drug haloperidol which enhances muscle tone. Muscle tone is electromechanically measured as the resistance to passive flexion and extension of the hind limb.

[8] = system: neuroleptics sensitized monkey; test: Neuroleptics sensitized monkey, haloperidol challenge; type: in vivo; settings: given after haloperidol challenge; scoring system
From the text: Another typical animal model is the neuroleptics sensitized monkey according to D. E. Casey, Psychopharmacology, 1996; 124: 134-140. Monkeys treated repeatedly with conventional neuroleptics are highly sensitive to a subsequent challenge dose of neuroleptic drugs. When challenged, the monkeys immediately show extrapyramidal motor side effects such as dystonia, dyskinesias, akathisia, and bradykinesia which are rated by a scoring system. The conventional neuroleptic drug haloperidol is given as a challenge.

[9] = system: Campus Syndrome in the Pietrain pig; test: Campus Syndrome in the Pietrain pig (tremor); type: in vivo; settings: accelerometric recording
From the text: (§2) Typical genetic models in mutant animals are the Campus Syndrome in the Pietrain pig according to A. Richter et al. (Exp. Neurology, 1995; 134: 205-213) or the Weaver mutant mouse according to J. R. Simon and B. Ghetti (Mol. Neurobiol., 1994; 9: 183-189). In the Campus Syndrome model, these mutant pigs show a high-frequency tremor when standing and during locomotion, but not while lying at rest. Assessment of tremor is made by accelerometric recording. In the Weaver mutant mouse, degenerative cerebellar atrophy is fould in association with tremor, gait instability, and toppling over the sides after a few steps.

Weaver mutant mouse = Weaver mutant mouse (locomotor activity); type: in vivo; settings: activity cages
From the text: as §2

[10] = system: oxotremorine-induced tremor; test: Oxotremorine-induced tremor; type: in vivo; settings: rating scale
Experimental: A typical animal model for drug-induced tremors is the oxotremorine-induced tremor (e.g. H. Hallberg and O. Almgren, Acta Physiol. Scand., 1987; 129: 407-13; J. G. Clement and W. R. Dyck, J. Pharmacol. Meth., 1989; 22: 25-36). Oxotremorine induces tremor which is measured by a rating scale. (R)-(−)-2-[5-(4-fluoro-phenyl)-3-pyridyl-methyl-amino-methyl]-chromane or one of its pharmaceutically acceptable salt inhibited oxotremorine-induced tremors.

[11] = system: posthypoxic myoclonus, rats; test: Posthypoxic myoclonus in rats; type: in vivo, rat; settings: after cardiac arrest for 8 minutes
Experimental: A typical animal model for myoclonus is myoclonus induced by an acute hypoxic episode according to D. D. Truong et al., Mov. Disord., 1994; 9: 201-206). In this model of posthypoxic myoclonus, rats undergo a cardiac arrest for 8 minutes and are resuscitated thereafter. Myoclonic jerks occur spontaneously but can be provoked by auditory stimulation, too, worsening over the days following cardiac arrest.

5-HT1A receptor [12] = target: T1, 5-HT1A receptor (Homo sapiens, UniProt P08908); settings: in contrast to buspirone
T1 sequence (P08908 whole entry): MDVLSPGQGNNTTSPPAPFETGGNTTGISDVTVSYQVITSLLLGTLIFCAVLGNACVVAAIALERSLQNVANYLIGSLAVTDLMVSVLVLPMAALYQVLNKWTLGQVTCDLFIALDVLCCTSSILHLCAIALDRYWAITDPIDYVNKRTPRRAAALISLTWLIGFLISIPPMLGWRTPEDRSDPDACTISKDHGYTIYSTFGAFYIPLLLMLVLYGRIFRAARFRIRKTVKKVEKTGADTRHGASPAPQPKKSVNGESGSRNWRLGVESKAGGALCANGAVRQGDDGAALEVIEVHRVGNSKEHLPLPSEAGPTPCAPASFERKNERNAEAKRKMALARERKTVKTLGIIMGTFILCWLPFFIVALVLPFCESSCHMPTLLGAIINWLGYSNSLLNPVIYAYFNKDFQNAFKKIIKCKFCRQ

dopamine D3 receptor = dopamine D3 receptor (Homo sapiens, UniProt P35462)
Chain of dopamine D3 receptor (P35462 whole entry, species assumed): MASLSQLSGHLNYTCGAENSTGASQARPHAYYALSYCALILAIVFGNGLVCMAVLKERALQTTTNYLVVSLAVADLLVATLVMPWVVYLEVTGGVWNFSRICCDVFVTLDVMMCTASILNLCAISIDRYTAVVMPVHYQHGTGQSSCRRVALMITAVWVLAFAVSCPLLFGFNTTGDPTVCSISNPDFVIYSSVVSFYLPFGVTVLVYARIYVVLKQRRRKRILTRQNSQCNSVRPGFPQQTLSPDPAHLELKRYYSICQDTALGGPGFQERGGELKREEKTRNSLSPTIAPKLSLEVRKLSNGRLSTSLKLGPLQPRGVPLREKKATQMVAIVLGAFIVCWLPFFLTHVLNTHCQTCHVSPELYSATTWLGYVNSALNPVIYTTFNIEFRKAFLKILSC

5-HT1A receptor [13] = target: T1, 5-HT1A receptor; test: biochemical
[14] = Abnormal Involuntary Movement Scale

Fc1ccc(-c2cncc(CNC[C@H]3CCc4ccccc4O3)c2)cc1 [(R)-(−)-2-[5-(4-fluorophenyl)-3-pyridylmethylaminomethyl]-chromane]
induction of catalepsy (rats): does not induce any catalepsy
prevention of catalepsy induced by conventional antidopaminergic drugs [1]: able to prevent catalepsy
reversal of already existing catalepsy induced by conventional antidopaminergic drugs such as haloperidol [1]: reverses already existing catalepsy
D2 antagonism (D2): exhibit a D2 antagonism under increased doses
dystonic dyskinesias [2, 14]: reduced
overall choreiform dyskinesias [2, 14]: reduced
psychotic states ([2]; rating of attention, reactivity and mobility): reduced
parkinsonian symptoms (Laval University Disability Scale) [3]: reduced all the parkinsonian symptoms
total activity [3]: increased
akinesia [4]: dose-dependently reduced
distance traveled and time active ([4]; activity meters): restored distance traveled and time active to about the level of normal animals
turning behavior induced by amphetamine [5]: dose-dependently antagonized
turning behavior induced by apomorphine [5]: dose-dependently antagonized
nocturnal akinesia (hypoactivity) ([6]; after four injections of 3-NP (late Huntington's disease)): reduced
nocturnal hyperactivity ([6]; after two injections of 3-NP (early Huntington's disease)): reduced
severity of dystonic symptoms (mutant dystonic hamster): dose-dependently reduced
muscle tone enhanced by haloperidol [7]: decreased
extrapyramidal motor side effects (dystonia, dyskinesias, akathisia, bradykinesia) [8]: dose-dependently reduced
tremor when standing and during locomotion [9]: reduced disabling tremor
locomotor activity (Weaver mutant mouse): enhanced
oxotremorine-induced tremors [10]: inhibited
number of auditory-evoked myoclonic jerks [11]: dose-dependently reduced
number of spontaneous myoclonic jerks [11]: dose-dependently reduced
potency as agonist at the 5-HT1A receptor relative to buspirone (5-HT1A receptor [12]): 30 fold
affinity to the dopamine D3 receptor (dopamine D3 receptor): high affinity
IC50 (5-HT1A receptor [13]): 1 nM

Reference: patent publication US7928128B2, “Use of(R)-(−) -2-[5-(4-fluorophenyl)-3-pyridylmethylaminomethyl]-chromane and its physiologically acceptable salts” (Merck Patent Gesellschaft mit beschrankter Haftung, priority 2000, dated 2011)
